Test [1] concerns IL-1β-induced hyperalgesia. Kind of test: IL-1β-induced hyperalgesia, paw pressure test. The format is in vivo, rats. The arrangement: dose or concentration left out as unconfirmed. The note with it: IP 20 min before IL-1β intraplantar; 2 hr after IL-1. Here is the method:
These experiments were performed using a modification of the methods described by Poole etal., Br. J. Pharmacol. 106:489-492 (1992); Foilenfant et al., Br. J. Pharmacol. 98:41-43 (1989); and Randall and Sellito, Arch. Internatl. Pharmacodyn. 111:409-419 (1957), each of which is incorporated herein by reference. Adult male Sprague-Dawley rats (175-275 g) were tested for hyperalgesia by a paw pressure technique using variable pressure instrumentation (IITC Life Sciences; Woodland Hills, Calif.). Rats were acclimated to the housing environment and were handled for three days prior to beginning a training session. On the day before the hyperalgesia experiments was to begin, each rat was placed into a sock and two variable paw pressure tests were performed 15 min apart. […] Approximately 5-10% of the rats were non-responders and were eliminated from further experiments.
Animals that responded to the paw pressure were pretreated by IP injection of various concentrations of EX-2 in a volume of 1 ml/kg (treated) or saline, alone (control). After 20 min, 100 μl of IL-1β (1U/100 μl) was administered to rats via intra plantar injection. Two hr after IL-1 administration, rats were subjected to two additional paw pressure tests and the increase in mm Hg of pressure that could be applied to the EX-2-treated rats as compared to the control rats was determined.

Test [2] relates to kidney (renal ischemia/reperfusion). Nature of the test: Renal ischemia-reperfusion injury. Set-up: RVR: unit not given here. The format is in vivo, rats. The note with it: I/R + EX-2 (50 or 500 μg/kg iv, dose not given); 1 hr clamping, after 60 min reperfusion. The procedure: Sprague-Dawley rats (250-300 g) were anesthetized with inactin® (120 mg/kg). After deep anesthesia was assured, the rats were cannulated in the trachea with polyethylene (PE) tubing (PE 240), jugular vein, femoral artery, bladder (PE 50 for previous 3 cannulations), and left ureter (stretched PE 50). Once cannulation was completed, a 2 cm flank incision above the left kidney was performed and the renal pelvis and vascular bundle were exposed. The tissue surrounding the left renal artery was gently dissected away from the artery. The exposed renal artery was clamped for 1 hr using a small vascular cross-over clamp. Just prior to clamping, EX-2 (50 or 500 μg/kg), ketorolac (KETO, 1 mg/kg), or vehicle was administered intravenously (iv) After 1 hr of clamping (ischemia), the clamp was gently removed with care taken to avoid damaging either the renal artery or nerves.

The subject of test [3] is kidney (cyclosporine-induced nephrotoxicity). Kind of test: Cyclosporine-induced nephrotoxicity. The test is classed as in vivo, rats. Here is the method: In the first study, male Sprague-Dawley rats (n=43) with a weight range of 240-290 g at the initiation of the cyclosporine A (CsA) treatment were divided into 4 weight matched groups. The groups were as follows: (1) Control: no CsA, no EX-2, treatment only with CsA vehicle (PBS) PO and EX-2 vehicle (also PBS) IP; (2) CsA: treatment with CsA (50 mg/kg in PBS administered PO daily at 0830 hr for 9 days) and IP injections of PBS (Ex-2 vehicle); (3) CsA and 50 μg: CsA treatment identical to group 2 with the addition of EX-2 (50 μg/kg IP administered daily at 0800 and 1700 hr in EX-2 vehicle); and (4) CsA and 500 μg: CsA treatment identical to groups 2 and 3, and EX-2 treatment protocol similar to group 3 except that the dose of EX-2 was 500 μg/kg BW. […] Renal blood flow was determined by the inulin extraction technique. […]
In the second study, male Sprague-Dawley rats (n=3l) with a weight range of 240-290 g at the time of initiation of the cyclosporine treatment were divided into 4 weight-matched groups. […] Renal hemodynamics were determined and extracellular fluid volumes were also assessed.
In the second study, where extracellular fluid volumes (ECF) were measured, there were no differences in ECF among control and treatment groups (27.6±1.9 in control, 27.5±1.7 in CsA and vehicle, 26.2±0.9 in CsA +200 μg/kg EX-2, and 25.7±1.4% in CsA +500 μg/kg EX-2). […]

For another test, the system named is IL-1-induced fever. Kind of test: IL-1β-induced temperature increase (fever). The test is classed as in vivo, rats. The note with it: 500 μg/kg IP. The procedure: Male Wistar rats (45-75 days old) were placed in a temperature controlled room held at 26° C., which is thermoneutral for the normal body temperature of rats, and were maintained in the room with free access to food and water for 24 hr prior to testing. On the morning of the study, rats were marked for identification and weighed. The temperature of each rat was determined by placing the animal in a regulatory cage designed to minimize stress and inserting a temperature probe (YSI probe #402) 3-5 cm into the animal's rectum. The temperature was recorded 15 sec after the reading stabilized. Measurements were repeated 1 hr later to establish a baseline temperature for each rat.
After the baseline temperatures were established, rats were injected IP with saline, IL-1β or LPS endotoxin. Rats then were injected IP with either saline (control) or various concentrations of EX-2, EX-3, or EX-4 (treated). The temperature of the rats was measured every hr for 6 hr and the inhibition by EX-2, EX-3, or EX-4 of the rise in temperature due to IL-1β or LPS was determined.
In addition, treatment with 50 or 150 μg/kg EX-2 inhibited LPS-induced fever by 45% or 52%, respectively, when measured 6 hr following LPS injection. Furthermore, treatment with 150 μg/kg EX-3 or EX-4 inhibited LPS-induced fever by 57% and 52%, respectively (Table II).

Another test has as its system Interleukin-6 (IL-6). Kind of test: Reduction of LPS-induced IL-6 levels in mice. The test is classed as in vivo. The note with it: 300 μg/mouse; LPS treated Balb/c mice. The procedure: Balb/c mice were grouped and treated as described in Example III, above. Blood samples were obtained from the orbital sinus at various times up to six hr and serum was collected and diluted as described above. A 100 μl aliquot was assayed for IL-6 levels using an IL-6-specific ELISA by a modification of the method of Starnes etal., J. Immunol. 145:4185-4194 (1990), which is incorporated herein by reference.
The mean (+/- SEM) IL-6 level in six mice from each group was determined and the percent reduction in IL-6 was calculated.

As to “Ac-Nle-Gln-His-(D)Phe-Arg-(D)Trp-Gly-NH2 [EX-2]”, in test [1], the “Reduction in IL-1-induced Hyperalgesia (increase in tolerated paw pressure)” value worked out at 125%. For the same substance, in test [2], the GFR is 0.5 ± 0.1, the RPF is 2.3 ± 0.3 and the RVR was found to be 1.8 ± 0.2. For the same substance, the renal blood flow entry in test [3] (CsA-treated rats, EX-2 IP twice daily) is “improved blood flow to values not different from control”. Moreover, in test [3] (compared to CsA and vehicle controls, in both studies), the GFR entry was “significantly increased GFR”. For the same substance, the “Reduction in IL-1-induced Fever” value in the test with IL-1-induced fever stood at 52%. The “Reduction in IL-6 levels” value in the test on Interleukin-6 (IL-6) was determined as 60%.

The values are drawn from patent US5726156A, “Cytokine regulatory agents and methods of use in pathologies and conditions associated with altered cytokine levels” (Trega Biosciences, Inc., priority 1995, dated 1998).
